Among the data in ChEMBL document CHEMBL1811782, “The 2010 Philip S. Portoghese Medicinal Chemistry Lectureship: addressing the "core issue" in the design of estrogen receptor ligands” (J Med Chem, 2011) are RBA and Ratio IC50 values, retold here.

Test [1] is described as follows: Relative binding affinity to estrogen receptor relative to estradiol.
The target in test [2] is T1, Estrogen receptor (Homo sapiens) (UniProt P03372).
T1 sequence (whole entry): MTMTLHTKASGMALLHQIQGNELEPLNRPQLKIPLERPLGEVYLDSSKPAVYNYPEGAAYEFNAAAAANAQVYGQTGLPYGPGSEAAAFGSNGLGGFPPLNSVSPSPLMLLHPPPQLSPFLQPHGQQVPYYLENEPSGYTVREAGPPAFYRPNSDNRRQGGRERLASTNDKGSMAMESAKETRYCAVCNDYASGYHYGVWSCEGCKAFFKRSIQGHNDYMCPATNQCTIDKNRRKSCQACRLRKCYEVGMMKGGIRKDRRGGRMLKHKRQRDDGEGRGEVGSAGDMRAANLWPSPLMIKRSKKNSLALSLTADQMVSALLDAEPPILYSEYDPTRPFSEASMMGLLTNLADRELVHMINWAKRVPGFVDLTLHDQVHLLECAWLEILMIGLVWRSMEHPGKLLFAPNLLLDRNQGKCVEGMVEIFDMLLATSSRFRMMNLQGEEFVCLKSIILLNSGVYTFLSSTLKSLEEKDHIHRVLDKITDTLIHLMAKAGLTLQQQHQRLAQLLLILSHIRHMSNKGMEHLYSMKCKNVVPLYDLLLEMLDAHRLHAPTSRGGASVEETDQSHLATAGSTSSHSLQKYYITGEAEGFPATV
Put plainly: Ratio of estradiol IC50 to compound IC50 for ERalpha receptor by relative binding affinity assay.

The target in test [3] is Estrogen receptor beta (Homo sapiens) (UniProt Q92731). Nature of the test: Ratio of estradiol IC50 to compound IC50 for ERbeta receptor by relative binding affinity assay.
Chain of Estrogen receptor beta (Homo sapiens) (Q92731 whole entry): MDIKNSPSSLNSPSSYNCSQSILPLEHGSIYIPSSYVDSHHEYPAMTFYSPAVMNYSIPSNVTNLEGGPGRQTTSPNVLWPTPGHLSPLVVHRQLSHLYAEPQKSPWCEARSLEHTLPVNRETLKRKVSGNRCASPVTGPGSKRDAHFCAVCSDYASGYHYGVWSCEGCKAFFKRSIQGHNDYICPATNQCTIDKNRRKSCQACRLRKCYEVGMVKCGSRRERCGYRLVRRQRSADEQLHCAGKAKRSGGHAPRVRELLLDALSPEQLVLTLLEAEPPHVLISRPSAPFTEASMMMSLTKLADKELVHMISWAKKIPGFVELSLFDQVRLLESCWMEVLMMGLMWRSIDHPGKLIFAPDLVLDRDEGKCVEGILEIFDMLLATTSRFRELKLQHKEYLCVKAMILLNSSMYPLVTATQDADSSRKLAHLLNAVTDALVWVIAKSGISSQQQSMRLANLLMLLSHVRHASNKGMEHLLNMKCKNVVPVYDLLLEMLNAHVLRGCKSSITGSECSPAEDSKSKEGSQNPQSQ

The structures appear in SMILES notation.

In test [1], `CCn1c(-c2ccc(O)cc2)nc(-c2ccccc2)c1-c1ccc(O)cc1` returned an RBA of 0.25%.

For the molecule `Oc1ccc(-c2cc(-c3ccc(O)cc3)[nH]n2)cc1`, the RBA in test [1] came to 0.009%.

As for `Cc1cc(C)c(B(Nc2ccc(O)cc2)c2c(C)cc(C)cc2C)c(C)c1`, the Ratio IC50 in test [2] was 0.013; in test [3] it was 0.18.

As for `CCn1c(-c2ccc(O)cc2)nc(-c2ccc(O)cc2)c1-c1ccc(O)cc1`, the RBA in test [1] is 0.38%.

Molecule `Oc1ccc(-c2cc(-c3ccc(O)cc3)n(-c3ccccc3)n2)cc1` yielded an RBA in test [1] of 0.03%.

In the case of `CCCCCN(B(c1c(C)cc(C)cc1C)c1c(C)cc(C)cc1C)c1ccc(O)cc1`, the Ratio IC50 in test [2] came out at 0.16; in test [3] it was 0.12.

As to `Cc1cc(C)c(B(c2c(C)cc(C)cc2C)N(CC(F)(F)F)c2ccc(O)cc2)c(C)c1`, the Ratio IC50 in test [2] is 2.2; in test [3], 1.3.

With `CCN(B(c1c(C)cc(C)cc1C)c1c(C)cc(C)cc1C)c1ccc(O)cc1`, the values for the Ratio IC50 in test [2] and in test [3] were 1.3 and 1.1, respectively.

Regarding `Cc1cccc(C)c1B(c1c(C)cccc1C)N(C)c1ccc(O)cc1`, the Ratio IC50 was 23 in test [2] and 16 in test [3].

With `CCc1c(-c2ccc(O)cc2)nc(-c2ccccc2)n1-c1ccc(O)cc1`, the RBA in test [1] came to 0.37%.

As for `CCc1c(-c2ccc(O)cc2)nn(-c2ccc(O)cc2)c1-c1ccc(O)cc1`, in test [1], the RBA is 19%.

In test [1], `CCc1c(-c2ccc(O)cc2)n[nH]c1-c1ccc(O)cc1` showed an RBA of 0.02%.

`CCc1c(-c2ccc(O)cc2)nn(-c2ccccc2)c1-c1ccc(O)cc1` showed an RBA in test [1] of 14%.

As for `Cc1cc(C)c(B(c2c(C)cc(C)cc2C)N(C)c2ccc(O)cc2)c(C)c1`, the Ratio IC50 in test [2] is 1.3; in test [3] it was 3.1.

On to `Cc1cccc(C)c1B(c1c(C)cccc1C)N(CC(F)(F)F)c1ccc(O)cc1`, for which the Ratio IC50 in test [2] was 10; in test [3] it was 5.8.
